Test results as given in PMC7876696 (ACS Omega, 2021).

Target: T1, Hup (histone-like DNA-binding protein of H. pylori) (Helicobacter pylori, UniProt O25506)
T1 sequence (O25506 1-94): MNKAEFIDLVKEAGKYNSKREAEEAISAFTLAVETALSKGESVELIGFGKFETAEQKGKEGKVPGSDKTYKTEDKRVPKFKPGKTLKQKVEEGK
Test: ligand-observed 1H NMR titration

O=C(O[C@@H]1Cc2c(O)cc(O)cc2O[C@@H]1c1cc(O)c(O)c(O)c1)c1cc(O)c(O)c(O)c1 [EGCG]
Kd: 3.29 ± 0.42 µM
